Literature values in patent US12121566B2, “Methods for treating gout” (Horizon Therapeutics USA, Inc., priority 2019, dated 2024).
Read-outs that look alike come from different tables or passages of the source.

Experiments:
[1] = test system: serum proteins; conditions: cited from earlier work
[2] = cited from earlier work; for detectable in urine: after 8 hours
[3] = test system: patients treated with allopurinol; conditions: cited from earlier work
[4] = cited from earlier work

Row | Compound | bound to serum proteins [1] | detectable in urine [2] | patients who develop allergic reactions [3] | severe hypersensitivity syndrome [3] | stability in solution ([4]; excess sodium hydroxide (0.1N), especially on warming) | solubility in water ([4]; may be dissolved with one molar equivalent of alkali) | stability in solution ([4]; neutral or acid pH) | oral absorption ([2]; oral administration)
1 | Sc1ncnc2nc[nH]c12 [mercaptopurine, 6-mercaptopurine] | 30% | no azathioprine or mercaptopurine is detectable |  |  |  |  |  | 
2 | Oc1ncnc2[nH]ncc12 [allopurinol] |  |  | Approximately 2% | about 0.4% |  |  |  | 
3 | Cn1cnc([N+](=O)[O-])c1Sc1ncnc2nc[nH]c12 [azathioprine, 6-[(1-methyl-4-nitro-1H-imidazol-5-yl)thio]-1H-purine] | 30% | no azathioprine or mercaptopurine is detectable |  |  | hydrolysis to mercaptopurine occurs | insoluble | stable | well absorbed
